Measured values from patent US6855730B2, “3-methylidenyl-2-indolinone modulators of protein kinase” (Sugen, Inc., priority 1998, dated 2005).

How the values were obtained:
EGFR = EGFR (Homo sapiens, UniProt P00533); assay: EGFR assay (cellular ELISA, NIH 3T3/C7 cells); format: cell-based; design: expressed in transfected cells; host or cells: NIH 3T3/C7; conditions: read-out: cell EGF IC50
Summary of the method: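 NIH 3T3/C7 cells expressing human EGFR, serum-starved (0.5% serum) ~40 h, treated with compound (1:200 of 10 mg/ml DMSO stock, 1% DMSO) then stimulated 5 min with 25 nM EGF. Lysate EGFR captured by antibody and phosphotyrosine detected by anti-Ptyr ELISA (OD 410 nm); % inhibition after negative-control subtraction.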

flkGST = target: T1, flkGST (Homo sapiens, UniProt P35968); assay: bio flkGST assay; format: biochemical
T1 construct: GST
T1 sequence (P35968 786-1356 limits assumed): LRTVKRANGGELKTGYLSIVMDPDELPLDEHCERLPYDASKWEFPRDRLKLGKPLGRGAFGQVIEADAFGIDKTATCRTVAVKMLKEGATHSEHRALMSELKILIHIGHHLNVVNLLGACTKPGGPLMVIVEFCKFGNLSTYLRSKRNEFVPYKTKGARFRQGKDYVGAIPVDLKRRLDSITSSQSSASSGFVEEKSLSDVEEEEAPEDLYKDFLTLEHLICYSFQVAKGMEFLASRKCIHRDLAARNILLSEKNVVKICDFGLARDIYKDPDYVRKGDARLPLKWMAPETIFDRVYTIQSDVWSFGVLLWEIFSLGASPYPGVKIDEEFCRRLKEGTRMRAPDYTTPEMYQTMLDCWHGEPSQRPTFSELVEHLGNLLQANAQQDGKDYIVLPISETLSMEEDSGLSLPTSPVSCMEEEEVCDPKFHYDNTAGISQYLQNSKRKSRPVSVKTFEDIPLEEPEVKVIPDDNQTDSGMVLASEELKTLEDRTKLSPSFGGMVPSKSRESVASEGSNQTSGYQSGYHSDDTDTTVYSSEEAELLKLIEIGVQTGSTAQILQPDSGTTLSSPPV

pyk2 = pyk2 (Homo sapiens, UniProt Q14289); assay: bio pyk2 assay; format: biochemical
pyk2, sequence (Q14289 whole entry, species assumed): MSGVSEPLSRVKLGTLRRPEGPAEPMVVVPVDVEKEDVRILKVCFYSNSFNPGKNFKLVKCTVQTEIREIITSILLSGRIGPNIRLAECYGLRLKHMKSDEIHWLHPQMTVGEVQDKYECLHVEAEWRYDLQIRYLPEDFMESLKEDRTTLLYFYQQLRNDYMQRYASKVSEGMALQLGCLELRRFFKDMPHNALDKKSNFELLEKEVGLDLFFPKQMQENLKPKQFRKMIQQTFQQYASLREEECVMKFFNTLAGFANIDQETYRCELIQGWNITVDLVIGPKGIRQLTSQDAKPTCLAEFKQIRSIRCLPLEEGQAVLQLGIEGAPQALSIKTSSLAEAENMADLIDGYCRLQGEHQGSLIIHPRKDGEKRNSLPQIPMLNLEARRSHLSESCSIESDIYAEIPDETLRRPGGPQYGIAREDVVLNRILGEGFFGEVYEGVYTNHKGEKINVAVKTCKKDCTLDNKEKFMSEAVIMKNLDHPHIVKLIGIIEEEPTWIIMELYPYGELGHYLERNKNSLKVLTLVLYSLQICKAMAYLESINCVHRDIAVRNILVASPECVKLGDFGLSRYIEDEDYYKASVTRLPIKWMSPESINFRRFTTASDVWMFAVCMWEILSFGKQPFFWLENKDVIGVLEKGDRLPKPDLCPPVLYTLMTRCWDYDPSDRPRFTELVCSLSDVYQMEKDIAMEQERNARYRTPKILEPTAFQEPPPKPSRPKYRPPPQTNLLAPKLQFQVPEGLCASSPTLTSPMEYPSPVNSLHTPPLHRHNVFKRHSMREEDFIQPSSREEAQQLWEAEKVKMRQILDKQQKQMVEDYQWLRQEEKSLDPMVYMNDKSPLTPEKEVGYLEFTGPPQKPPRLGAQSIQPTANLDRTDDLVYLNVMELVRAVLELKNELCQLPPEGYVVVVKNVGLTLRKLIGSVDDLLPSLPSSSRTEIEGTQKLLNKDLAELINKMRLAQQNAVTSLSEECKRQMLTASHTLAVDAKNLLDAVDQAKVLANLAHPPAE

EGFR, sequence (P00533 25-1210): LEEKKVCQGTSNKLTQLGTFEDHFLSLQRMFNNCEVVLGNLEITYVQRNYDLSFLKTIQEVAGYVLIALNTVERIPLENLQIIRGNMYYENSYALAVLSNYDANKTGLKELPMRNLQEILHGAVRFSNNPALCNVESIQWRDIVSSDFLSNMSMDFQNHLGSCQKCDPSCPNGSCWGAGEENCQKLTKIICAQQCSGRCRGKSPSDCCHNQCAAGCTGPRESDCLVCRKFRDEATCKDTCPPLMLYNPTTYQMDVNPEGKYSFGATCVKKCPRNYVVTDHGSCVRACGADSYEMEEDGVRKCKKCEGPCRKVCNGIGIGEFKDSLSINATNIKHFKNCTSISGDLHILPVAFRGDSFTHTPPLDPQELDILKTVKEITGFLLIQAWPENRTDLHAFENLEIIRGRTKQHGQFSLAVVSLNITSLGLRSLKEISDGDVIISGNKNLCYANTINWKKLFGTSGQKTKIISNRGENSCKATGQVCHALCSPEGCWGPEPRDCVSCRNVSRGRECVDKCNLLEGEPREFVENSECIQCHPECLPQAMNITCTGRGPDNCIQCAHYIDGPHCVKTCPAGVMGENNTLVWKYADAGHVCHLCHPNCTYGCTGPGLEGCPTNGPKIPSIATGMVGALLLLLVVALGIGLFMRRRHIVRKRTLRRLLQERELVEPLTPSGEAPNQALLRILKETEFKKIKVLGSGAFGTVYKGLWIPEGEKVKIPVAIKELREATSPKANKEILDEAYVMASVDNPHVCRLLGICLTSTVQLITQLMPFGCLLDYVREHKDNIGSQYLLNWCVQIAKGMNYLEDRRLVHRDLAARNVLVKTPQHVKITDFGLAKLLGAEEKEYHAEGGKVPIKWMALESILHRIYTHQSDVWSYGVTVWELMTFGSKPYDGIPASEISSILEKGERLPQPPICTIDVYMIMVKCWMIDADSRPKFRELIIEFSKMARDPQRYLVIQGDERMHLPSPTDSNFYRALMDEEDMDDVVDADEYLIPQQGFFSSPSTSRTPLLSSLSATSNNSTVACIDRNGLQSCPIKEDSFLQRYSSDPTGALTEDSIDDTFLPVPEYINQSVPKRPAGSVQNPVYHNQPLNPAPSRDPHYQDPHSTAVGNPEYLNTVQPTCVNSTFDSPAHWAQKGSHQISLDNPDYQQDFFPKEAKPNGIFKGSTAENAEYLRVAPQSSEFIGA

| IC50 (EGFR) [µM] | IC50 (flkGST) [µM] | IC50 (pyk2) [µM] | Compound |
| --- | --- | --- | --- |
| > 100 | 0.61 | 12 | CN(C)C(=O)CCc1c(/C=C2\C(=O)Nc3ccccc32)[nH]c2c1CCCC2 [Example 197, N,N-Dimethyl-3-[2-(2-oxo-1,2-dihydroindol-3-ylidenemethyl)-4,5,6,7-tetrahydro-1H-indol-3-yl]-propionamide] |
| > 100 | 5.84 | 1.5 | CN(C)CCCc1c(/C=C2\C(=O)Nc3ccccc32)[nH]c2c1CCCC2 [Example 198, 3-[3-(3-Dimethylaminopropyl)-4,5,6,7-tetrahydro-1H-indol-2-ylmethylene]-1,3-dihydroindol-2-one] |
| > 100 | 0.17 | 2.83 | NC(=O)CCc1c(/C=C2\C(=O)Nc3ccccc32)[nH]c2c1CCCC2 [Example 199, 3-[2-(2-Oxo-1,2-dihydroindol-3-ylidenemethyl)-4,5,6,7-tetrahydro-1H-indol-3-yl]-propionamide] |
| > 100 | 1.29 | 5.62 | O=C1Nc2ccccc2/C1=C/c1[nH]c2c(c1CCC(=O)N1CCOCC1)CCCC2 [Example 200, 3-[3-(3-Morpholin-4-yl-3-oxopropyl)-4,5,6,7-tetrahydro-1H-indol-2-ylmethylene]-1,3-dihydroindol-2-one] |
| > 100 | 0.57 | 6.61 | CNC(=O)CCc1c(/C=C2\C(=O)Nc3ccccc32)[nH]c2c1CCCC2 [Example 201, N-Methyl-3-[2-(2-oxo-1,2-dihydroindol-3-ylidenemethyl)-4,5,6,7-tetrahydro-1H-indol-3-yl]-propionamide] |
| > 100 | 0.38 | 0.13 | CC(C)NS(=O)(=O)c1ccc2c(c1)C(=Cc1[nH]c3c(c1CCC(=O)O)CCCC3)C(=O)N2 [Example 208, 3-[2-(5-Isopropylaminosulfonyl-2-oxo-1,2-dihydroindol-3-ylidenemethyl)-4,5,6,7-tetrahydro-1H-indol-3-yl]-propionic acid] |

| Compound | IC50 (EGFR) [µM] | IC50 (flkGST) [µM] | IC50 (pyk2) [µM] |
| --- | --- | --- | --- |
| Cc1c[nH]c(/C=C2\C(=O)Nc3ccccc32)c1CCC(=O)O [Example 215, 3-[4-Methyl-2-(2-oxo-1,2-dihydroindol-3-ylidenemethyl)-1H-pyrrol-3-yl]-propionic acid] | > 100 | 0.08 | 6.9 |
